Source: PubChem BioAssay AID1259348 (Broad Institute, 2017)
Activity calls are given as the source filed them.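 The calls were made as follows: active = any compound with an IC50 of 100 nM or lower; inactive = the rest.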

Molecular target: Insulin-degrading enzyme (Homo sapiens) (UniProt P14735)
Assay: IDE catalytic activity blockers, fluorogenic substrate – biochemical, kinetic mode, counter-screen for IDE exo-site inhibitor project, dose response (AID 1259348);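 as to z-score: purified IDE bound to fluorescein-labelled 6b probe FL-6b at the exo-site; probe displacement lowers polarization so hits show a drop in FP signal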
Settings: purified human IDE, fluorogenic decapeptide proteolysis; for z-score: measured here: primary FP probe displacement screen, stronger effect = lower value

Insulin-degrading enzyme (Homo sapiens), sequence (P14735 42-1019 limits assumed): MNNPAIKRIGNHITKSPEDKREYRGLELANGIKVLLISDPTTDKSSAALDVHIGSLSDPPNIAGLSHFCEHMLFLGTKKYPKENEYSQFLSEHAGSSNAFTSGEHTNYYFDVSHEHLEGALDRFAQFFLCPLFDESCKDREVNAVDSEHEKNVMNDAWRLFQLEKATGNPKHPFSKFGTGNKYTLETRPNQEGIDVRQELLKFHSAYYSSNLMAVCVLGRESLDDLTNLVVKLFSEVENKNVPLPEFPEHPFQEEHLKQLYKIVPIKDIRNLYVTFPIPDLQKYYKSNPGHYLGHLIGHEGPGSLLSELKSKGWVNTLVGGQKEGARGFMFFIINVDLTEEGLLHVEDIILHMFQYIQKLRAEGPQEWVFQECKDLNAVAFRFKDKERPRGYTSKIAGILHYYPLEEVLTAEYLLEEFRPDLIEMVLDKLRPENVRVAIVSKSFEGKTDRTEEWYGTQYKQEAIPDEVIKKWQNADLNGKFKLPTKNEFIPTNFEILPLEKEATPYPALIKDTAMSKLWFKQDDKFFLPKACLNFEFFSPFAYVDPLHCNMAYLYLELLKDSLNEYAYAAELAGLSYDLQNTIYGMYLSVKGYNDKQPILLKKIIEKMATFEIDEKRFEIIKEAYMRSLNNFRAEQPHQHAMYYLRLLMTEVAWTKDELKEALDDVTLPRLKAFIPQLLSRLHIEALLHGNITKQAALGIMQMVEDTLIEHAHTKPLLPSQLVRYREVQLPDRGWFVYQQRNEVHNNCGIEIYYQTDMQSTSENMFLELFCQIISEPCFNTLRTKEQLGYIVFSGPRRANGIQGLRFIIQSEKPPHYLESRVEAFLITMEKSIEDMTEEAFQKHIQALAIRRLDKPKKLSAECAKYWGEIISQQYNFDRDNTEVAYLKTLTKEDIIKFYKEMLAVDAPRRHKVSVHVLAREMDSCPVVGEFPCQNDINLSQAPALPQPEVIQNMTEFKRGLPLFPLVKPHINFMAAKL

SMILES	IC50	z-score
CCC(=O)N1[C@H](CO)[C@H](c2ccc(-c3ccccc3OC)cc2)[C@@H]1CNC(C)=O	5.8 µM	-15
COc1ccccc1-c1ccc([C@@H]2[C@@H](C#N)N(C(=O)c3cccnc3)[C@@H]2CO)cc1	1.2 µM	-33.8
CO[C@H]1CN(C)C(=O)c2cc(NC(=O)c3ccc(Oc4ccccc4)cc3)ccc2OC[C@@H](C)NC[C@@H]1C	2.9 µM	-13.2
Cc1ccccc1-c1ccc([C@@H]2[C@@H](CO)N3CCCCN(S(C)(=O)=O)C[C@@H]23)cc1	1.3 µM	-17.9
O=C(NC1CCCC1)N1CC(=O)N2[C@H](CO)[C@@H](c3ccc(-c4cccnc4)cc3)[C@@H]2C1	14 µM	-12.2
Cc1ccccc1-c1ccc(C2[C@@H]3CN(Cc4cocn4)C[C@H]2N3)cc1 (some centres not stated)	6.7 µM	-3.01
Cc1cccc(-c2ccc([C@@H]3[C@@H](CO)N4CCCCN(S(=O)(=O)c5cccc(C)c5)C[C@@H]34)cc2)c1	1 µM	-9.77
COc1ccccc1-c1ccc([C@H]2[C@@H](CO)N[C@@H]2CNC(=O)C2CCCC2)cc1	5.1 µM	-10.9
COc1ccccc1NC(=O)N1CCCCN2[C@H](CO)[C@@H](c3ccc(-c4cccc(C)c4)cc3)[C@@H]2C1	7.6 µM	-2.84
Cc1ccccc1-c1ccc([C@H]2[C@H]3CN(C(=O)NC4CCCC4)CCCCN3[C@H]2CO)cc1	5.6 µM	-5.69
Cc1cccc(-c2ccc([C@H]3[C@@H](CO)N4CCCCN(Cc5cccnc5)C[C@H]34)cc2)c1	10.7 µM	-6.79
Cc1ccccc1-c1ccc([C@H]2[C@@H](CO)N3CCCCN(C(=O)Cc4ccccn4)C[C@@H]23)cc1	50 µM	-5.7
Cc1cccc(-c2ccc([C@@H]3[C@@H](CO)N4CCCCN(C(=O)NC(C)C)C[C@@H]34)cc2)c1	6.2 µM	-5.51
OC[C@H]1[C@@H](c2ccc(C#Cc3ccccc3)cc2)[C@@H]2CN(Cc3cncnc3)CCCCN12	4.3 µM	-16.2
Cc1ccccc1-c1ccc([C@@H]2[C@H]3CN(C(=O)Cc4ccccn4)CC(=O)N3[C@H]2CO)cc1	2 µM	-17.7
CCCNC(=O)N1CC(=O)N2[C@H](CO)[C@@H](c3ccc(-c4cccc(C)c4)cc3)[C@@H]2C1	0.77 µM	-22.4
Cc1ccccc1-c1ccc([C@H]2[C@@H](CO)N3CCCCN(C(=O)c4cccnc4)C[C@@H]23)cc1	12.5 µM	-4.79
Cc1ccccc1-c1ccc([C@H]2[C@H](CO)N3C(=O)CN(C(=O)c4ccc(F)cc4)C[C@@H]23)cc1	3 µM	-16.5
O=C(c1ccccn1)N1CC(=O)N2[C@@H](CO)[C@@H](c3ccc(C#Cc4ccccc4)cc3)[C@@H]2C1	5.2 µM	-19.9
Cc1ccccc1-c1ccc([C@@H]2[C@@H](CO)N3CCCCN(S(=O)(=O)c4ccc(F)cc4)C[C@@H]23)cc1	0.34 µM	-17.5
CO[C@@H]1CN(C)C(=O)c2cc(NC(=O)c3ccc(Oc4ccccc4)cc3)ccc2OC[C@@H](C)NC[C@H]1C	2.5 µM	-13.5
Cc1ccccc1-c1ccc([C@H]2[C@@H](CO)N3CCCCN(CC4CC4)C[C@@H]23)cc1	45 µM	-3.48

SMILES	IC50	z-score
Cc1ccccc1-c1ccc([C@H]2[C@@H](CO)N3C(=O)CN(C(=O)Cc4ccccn4)C[C@@H]23)cc1	3.2 µM	-17.3
Cc1ccccc1-c1ccc([C@H]2[C@@H](CO)N3CCCCN(C(=O)CN4CCOCC4)C[C@@H]23)cc1	25 µM	0.13
COc1cccc(C#Cc2ccc([C@@H]3[C@H](CO)N4C(=O)CN(C(=O)Cc5cccnc5)C[C@@H]34)cc2)c1	6.2 µM	-4.12
Cc1ccccc1-c1ccc(C2[C@@H]3CN(S(=O)(=O)c4cn(C)cn4)C[C@H]2N3)cc1 (some centres not stated)	3.9 µM	-16.6
Cc1ccccc1-c1ccc([C@H]2[C@@H](CO)N3CCCCN(C(=O)Nc4cccc(F)c4)C[C@@H]23)cc1	3.8 µM	-4.36
Cc1ccccc1-c1ccc([C@H]2[C@@H](CO)N3CCCCN(C(=O)NC4CCCC4)C[C@H]23)cc1	0.88 µM	-17.3
Cc1ccccc1-c1ccc([C@H]2[C@H](CO)N3CCCCN(CC4CC4)C[C@@H]23)cc1	30 µM	-2.04
CCCNC(=O)N1CC(=O)N2[C@@H](CO)[C@H](c3ccc(-c4cccc(C)c4)cc3)[C@@H]2C1	2.4 µM	-15.8
Cc1ccccc1-c1ccc([C@H]2[C@@H](CO)N3CCCCN(S(C)(=O)=O)C[C@@H]23)cc1	> 100 µM (inactive)	-2.31
Cc1ccccc1-c1ccc([C@@H]2[C@@H](CO)N3CCCCN(C(=O)NC4CCCC4)C[C@H]23)cc1	3.6 µM	-14.5
Cc1ccccc1-c1ccc([C@@H]2[C@@H](CO)N3C(=O)CN(S(C)(=O)=O)C[C@@H]23)cc1	1.8 µM	-12.7
COc1cccc(C#Cc2ccc([C@@H]3[C@H](CO)N4C(=O)CN(C(C)=O)C[C@@H]34)cc2)c1	3.7 µM	-15.3
COc1ccccc1-c1ccc(C2[C@@H]3CN(C(=O)c4cccnc4)C[C@H]2N3)cc1 (some centres not stated)	7.1 µM	-13.8
Cc1ccccc1-c1ccc([C@@H]2[C@H](CO)N3CCCCN(C(=O)Cc4ccccn4)C[C@@H]23)cc1	4.9 µM	-15.5
Cc1cccc(-c2ccc([C@@H]3[C@@H](CO)N4CCCCN(C(=O)c5cccnc5)C[C@@H]34)cc2)c1	> 100 µM (inactive)	-3.25
COc1ccccc1-c1ccc([C@@H]2[C@@H](C#N)N(C(=O)CN(C)C)[C@H]2CO)cc1	5.2 µM	-12.4
Cc1ccccc1-c1ccc([C@H]2[C@@H](CO)N3C(=O)CN(C(=O)Nc4ccc(F)cc4)C[C@H]23)cc1	0.47 µM	-21.3
CCCNC(=O)N1CC(=O)N2[C@@H](CO)[C@@H](c3ccc(C#Cc4cccc(OC)c4)cc3)[C@@H]2C1	11 µM	-1.33
Cc1ccccc1-c1ccc([C@@H]2[C@@H](CO)N3CCCCN(C(=O)Cc4ccccn4)C[C@@H]23)cc1	11.5 µM	-9.54
CC(=O)N1CCCCN2[C@H](CO)[C@@H](c3ccc(-c4cccc(C)c4)cc3)[C@@H]2C1	16.5 µM	-3.48
Cc1ccccc1-c1ccc([C@H]2[C@@H](CO)N3CCCCN(C(=O)Nc4ccc(F)cc4)C[C@@H]23)cc1	3 µM	-1.63
COc1ccccc1C#Cc1ccc([C@H]2[C@H](CO)N3CCCCN(C(=O)C4CCC4)C[C@@H]23)cc1	2.7 µM	-12.3

SMILES	IC50	z-score
Cc1ccccc1-c1ccc(C2[C@@H]3CN(C(=O)C4CCCCC4)C[C@H]2N3)cc1 (some centres not stated)	1.5 µM	-13.9
Cc1ccccc1-c1ccc(C2[C@@H]3CN(C(=O)C4CCOCC4)C[C@H]2N3)cc1 (some centres not stated)	2.2 µM	-7.71
Cc1ccccc1-c1ccc([C@H]2[C@H](CO)N3C(=O)CN(C(=O)Cc4ccccn4)C[C@@H]23)cc1	4.4 µM	-13.9
Cc1ccccc1-c1ccc([C@H]2[C@H](CO)N3C(=O)CN(S(C)(=O)=O)C[C@@H]23)cc1	17.5 µM	-1.37
CN1C(=O)c2cc(NC(=O)Nc3ccccc3Cl)ccc2OC[C@H]2O[C@H](CC(=O)NCCCN3CCOCC3)CC[C@@H]21	1.7 µM	-14.2
Cc1cccc(-c2ccc([C@@H]3[C@@H](CO)N4CCCCN(S(=O)(=O)c5cccs5)C[C@@H]34)cc2)c1	0.8 µM	-3.77
Cc1ccccc1-c1ccc([C@H]2[C@@H](CO)N3CCCCN(S(=O)(=O)Cc4ccccc4)C[C@@H]23)cc1	44 µM	-1.65
CCS(=O)(=O)N1CCCCN2[C@H](CO)[C@@H](c3ccc(-c4ccccc4C)cc3)[C@@H]2C1	0.41 µM	-18.3
Cc1cccc(-c2ccc([C@@H]3[C@H](CO)N4CCCCN(S(=O)(=O)c5cn(C)cn5)C[C@@H]34)cc2)c1	2.1 µM	-19.5
Cc1ccccc1-c1ccc([C@@H]2[C@H]3CN(C(=O)c4ccncc4)CC(=O)N3[C@H]2CO)cc1	4.2 µM	-13.6
Cc1cccc(-c2ccc([C@@H]3[C@@H](CO)N4CCCCN(C(=O)c5ccncc5)C[C@@H]34)cc2)c1	16.5 µM	-3.14
Cc1ccccc1-c1ccc([C@H]2[C@@H](CO)N3CCCCN(Cc4cccnc4)C[C@H]23)cc1	4.8 µM	-11.4
Cc1ccccc1-c1ccc([C@H]2[C@@H](CO)N3CCCCN(S(=O)(=O)c4ccc(F)cc4)C[C@@H]23)cc1	85 µM	3.66
Cc1cccc(-c2ccc([C@@H]3[C@@H](CO)N4C(=O)CN(C(=O)Cc5ccccn5)C[C@@H]34)cc2)c1	3.3 µM	-11.8
Cc1cccc(-c2ccc([C@@H]3[C@H](CO)N4CCCCN(S(=O)(=O)c5ccccc5F)C[C@@H]34)cc2)c1	0.55 µM	-22.1
Cc1cccc(-c2ccc([C@@H]3[C@H]4CN(C(=O)c5ccncc5)CCCCN4[C@H]3CO)cc2)c1	4.9 µM	-17
CC(C)NC(=O)N1CCCCN2[C@@H](CO)[C@H](c3ccc(C#Cc4ccccc4F)cc3)[C@@H]2C1	1.2 µM	-12.7
COc1cccc(-c2ccc([C@@H]3[C@@H](CO)N4CCCCN(C(=O)Cc5ccncc5)C[C@@H]34)cc2)c1	14.7 µM	-2.33
Cc1cccc(-c2ccc([C@@H]3[C@@H](CO)N4C(=O)CN(C(=O)c5cnccn5)C[C@@H]34)cc2)c1	5 µM	-17.5
Cc1cccc(-c2ccc([C@@H]3[C@@H](CO)N4CCCCN(CCC(F)(F)F)C[C@@H]34)cc2)c1	71.5 µM	-0.68
CO[C@@H]1CN(C)C(=O)c2cc(NC(=O)c3ccc(Oc4ccccc4)cc3)ccc2OC[C@@H](C)NC[C@@H]1C	2.4 µM	-11.5
Cc1ccccc1-c1ccc([C@@H]2[C@@H](CO)N3C(=O)CN(C(=O)Cc4ccccn4)C[C@@H]23)cc1	2.7 µM	-19.9
